{"source": "paper PMC12935919", "about": "(Frontiers in Pharmacology, 2026)", "key": {"[1]": {"test_system": "patients with muscle atrophy (ICD-10-CM code: M62.5)", "assay": "Clinical trial: safety, treatment emergent adverse events", "type": "in vivo, human", "conditions": "12 weeks, 200 mg/day, N=40", "text": "All participants provided written informed consent prior to any study procedures. Key eligibility criteria included adults aged ≥18 years with low muscle mass by DEXA (men: <7.0 kg/m^2; women: <5.4 kg/m^2) and either low handgrip strength (men: <28 kg; women: <18 kg) or low physical performance (6-m walk speed <1.0 m/s). Major exclusion criteria included uncontrolled systemic disease, musculoskeletal or neurological disorders, recent anabolic steroid use, and concomitant medications known to affect protein metabolism; full inclusion and exclusion criteria are provided in Supplementary Table S1. Of 89 patients screened, seven were screen failures and two withdrew prior to randomization; 80 eligible participants were enrolled and proceeded to the baseline/randomization visit (mean age 38.83 ± 9.91 years; range 23–69).\nThe study was double-blind; participants, investigators, and study staff were unaware of treatment allocation throughout the trial.\nEfficacy endpoints were evaluated as changes from baseline to Week 12; efficacy analyses were conducted in the per-protocol population, and safety analyses included all randomized participants who received at least one dose of study product (Supplementary Figure S2). Of 80 randomized participants, 75 completed the study."}, "SAMP8 mice": {"test_system": "SAMP8 mice", "assay": "Sirius Red collagen deposition in muscle", "type": "in vivo, mouse", "conditions": "normalized to SAMR1 = 100%, oral gavage 45 weeks, 20 mg in 200 µL PBS, n = 5, mean ± SD", "experimental": "Eight week old male senescence-accelerated mouse-prone 8 (SAMP8)/Ta Slc and senescence-accelerated mouse-resistant 1 (SAMR1)/Ta Slc mice (weighing 30 ± 2 g) were purchased from Central Lab Animal Inc. (Seoul, Korea) and housed at 24 °C in cages under a 12/12 h light/dark cycle with ad libitum access to food and water. […] Mice in all groups were dosed once daily by oral gavage for 45 weeks. […] This study was approved by the Institutional Animal Care and Use Committee (approval number CG-R22-001).\nQuadriceps (Quad) and gastrocnemius (Gas) muscle tissues were harvested and immersion-fixed in 10% neutral buffered formalin at 4 °C for 24 h. Following fixation, the tissues were dehydrated through a graded series of ethanol, cleared in xylene, and embedded in paraffin. Paraffin-embedded tissues were sectioned at a thickness of 5 μm. The tissue sections mounted on slides were deparaffinized, washed, and stained with hematoxylin (Dako, S3309) and eosin (Thermo Fisher Scientific, #6766007) (H&E). To assess the degree of muscle fibrosis, they were also stained using a Sirius Red Stain Kit (Abcam, ab150681) according to the manufacturer’s instructions. […] For each animal, three images were randomly selected from the stained sections, and the total stained area per image, rather than individual muscle fibers, was quantified using ImageJ software."}, "C2C12 myotubes": {"test_system": "C2C12 myotubes", "assay": "DEX-induced muscle atrophy model, Western blot", "type": "cell-based", "conditions": "10 μM DEX 24 h, alone or with 10 or 100 μM Myoki", "experimental": "(§1) To induce C2C12 myotube differentiation, myoblasts were seeded in 6-well plates at 5 × 10^5 cells per well. Once reaching 90% confluency, they were cultured in DMEM supplemented with 2% horse serum (Thermo Fisher Scientific) and 1% penicillin-streptomycin. […] Differentiation was observed using an optical microscope (LEICA, 100×). Myotube morphology (length and diameter) was quantified in ImageJ (NIH) using the same images: myotube length was measured by tracing the long axis of each myotube (end-to-end), and myotube diameter was measured as the short-axis width at three positions along each myotube; the mean of the three width values was recorded as the diameter. For each experimental group, three randomly captured images (fields) were analyzed, and at least 15–20 myotubes per image were quantified under identical imaging settings.\nTreated C2C12 cells (5 × 10^5 cells/well) were harvested in lysis buffer (Sigma-Aldrich, 2910) and centrifuged at 12,000 g for 10 min; proteins in the supernatant were collected. Protein concentrations were measured using the BCA Protein Assay Kit (Thermo Fisher Scientific). Each 20 μg sample was separated using 10% SDS–PAGE and transferred onto a polyvinylidene fluoride membrane (Millipore, Burlington, MA, USA). Non-specific binding was blocked with 5% non-fat dry milk for 1 h. The membranes were incubated overnight with primary antibodies: Anti-Myf5 (Abcam, ab125078), Anti-Myf6 (Abcam, ab182842), Anti-MyoD (Santa Cruz, sc-377460), Anti-MyoG (Santa Cruz, sc-52903), Anti-α-actinin (Santa Cruz, sc-17829), Anti-MYH3 (Santa Cruz, sc-53091), Anti-p-mTOR (Ser2448) (CST, #5536), Anti-p-Akt (Ser473) (CST, #9271), Anti-p-p70 S6 Kinase (Thr389) (CST, #9205), Anti-myostatin (Abcam, ab124721), Anti-atrogin-1/MAFbx (Santa Cruz, sc-166806), and Anti-MuRF1 (Santa Cruz, sc-398608). Membranes were then incubated for 1 h with HRP-conjugated secondary antibodies. Blot images were captured with the ECL system (Amersham, UK) and quantified using ImageJ."}, "C2C12 cells [2]": {"test_system": "C2C12 cells", "assay": "RT-PCR / RT-qPCR of MRF genes", "type": "cell-based", "conditions": "Day 3; Myf6, MyoD, MyoG; normalized to GAPDH", "experimental": "For RT-PCR, the PCR products were electrophoresed in 1.5% agarose gel containing EtBr at 100 V for 30 min and visualized using a ChemiDocTM XRS imaging system (Bio-Rad, Hercules, CA, USA). RT-qPCR was performed using SYBR Green PCR Master Mix (Applied Biosystems, Foster City, CA, USA) for quantitative analysis. Glyceraldehyde-3-phosphate dehydrogenase (GAPDH) was used as a housekeeping gene for normalization. Relative quantification (RQ) was calculated using the ΔΔCt method, and data were expressed as RQ values by comparing the threshold cycle (Ct) of each target gene to that of GAPDH. The linearity and amplification efficiency of the PCR reactions were evaluated using serial dilutions of cDNA, and all reactions were performed in triplicate. The primer sequences used were as follows: Myf5 forward ([NT]), Myf5 reverse ([NT]), Myf6 forward ([NT]), Myf6 reverse ([NT]), MyoD forward ([NT]), MyoD reverse ([NT]), MyoG forward ([NT]), MyoG reverse ([NT])."}, "[3]": {"biological_target": "T1, human recombinant Myostatin-Fc protein (Mus musculus, UniProt O08689)", "T1 construct": "purchased Sino Biological 50441-M01H", "T1 sequence (O08689 268-376)": "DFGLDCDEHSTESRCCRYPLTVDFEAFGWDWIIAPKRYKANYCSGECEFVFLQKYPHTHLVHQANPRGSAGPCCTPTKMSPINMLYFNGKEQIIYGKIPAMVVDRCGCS", "assay": "Surface plasmon resonance (SPR) analysis, Biacore T200", "type": "binding", "conditions": "3.125 μM to 200 μM, 25 °C, HBS-EP", "experimental": "The human recombinant Myostatin-Fc protein (Sino Biological, #50441-M01H) was immobilized on the surface of a CM5 sensor chip at 2210.3 response units (RUs) using an EDC/NHS amine coupling kit, following the manufacturer’s instructions. […] Data analysis was performed using Biacore T200 Evaluation Software version 3.1 (Cytiva)."}, "C2C12 cells [4]": {"test_system": "C2C12 cells", "assay": "Myotube morphology during differentiation (microscopy, ImageJ)", "type": "cell-based", "experimental": "as §1"}}, "note": "No end group written: not given here.", "data": [{"substance": "EAEYEHL-OH [Myoki]", "values": [{"measurement": "TEAEs related to the study product", "setting": "[1]", "value": "No TEAEs were assessed as related to the study product"}, {"measurement": "serious TEAEs", "setting": "[1]", "value": "no serious TEAEs were reported"}, {"measurement": "severity and outcome of TEAEs", "setting": "[1]", "value": "all TEAEs were mild in severity and resolved"}, {"measurement": "collagen deposition, quadriceps", "setting": "SAMP8 mice; untreated SAMP8 185% ± 10.61%, difference not statistically significant", "value": "151% ± 28.82%"}, {"measurement": "collagen deposition, gastrocnemius", "setting": "SAMP8 mice; untreated SAMP8 291% ± 19.72%", "value": "194% ± 22.84%"}, {"measurement": "MuRF1 expression", "setting": "C2C12 myotubes", "value": "significantly and dose-dependently reduced"}, {"measurement": "atrogin-1/MAFbx expression", "setting": "C2C12 myotubes", "value": "significantly and dose-dependently reduced"}, {"measurement": "expression levels of differentiated muscle fiber structural proteins", "setting": "C2C12 myotubes", "value": "dose-dependently restored toward control levels"}, {"measurement": "phosphorylation levels of muscle growth signaling proteins (Akt, mTOR, p70S6K)", "setting": "C2C12 myotubes", "value": "dose-dependently restored toward control levels"}, {"measurement": "MRF gene expression (mRNA)", "setting": "C2C12 cells [2]", "value": "significant increase"}, {"measurement": "SPR binding to myostatin", "setting": "[3]; seven concentrations, CM5 chip, 2210.3 RU immobilized, 30 μL/min, steady-state affinity fit, Kd not given", "value": "binds to Myostatin"}, {"measurement": "association and dissociation", "setting": "[3]; SPR", "value": "relatively rapid association and dissociation"}, {"measurement": "response units (RUs)", "setting": "[3]; SPR", "value": "increased dose-dependently"}, {"measurement": "increase in myotube length compared to the control", "setting": "C2C12 cells [4]; Day 6, 100 μM, differentiation medium (2% horse serum), mean ± SD", "value": "200% ± 33.88%"}, {"measurement": "myotube length", "setting": "C2C12 cells [4]; Days 0-6, Myoki 1, 10 and 100 μM", "value": "increased concentration- and time-dependently"}]}]}
